On the set-up of data set [1]: method as in PMID 21187465. The conditions noted are these: cited from earlier work.
Data set [2] relates to glutathione S-transferase (GST). Also on record: method as in PMID 21187465. To be noted: cell culture; cited from earlier work.
Data set [3] has as its system quinone reductase 1 (NQ01, QR1). The arrangement: method as in PMID 21187465. The conditions noted are these: cell culture; cited from earlier work.
Another data set relates to iNOS. The arrangement: method as in PMID 21105712. To be noted: cited from earlier work.
Data set [4] relates to NFκB. The arrangement: method as in PMID 21105712. To be noted: earlier work; read-out: IC50, inhibition of NFκB; cited from earlier work.
Data set [5] concerns NFκB. Briefly: TNF-α-induced NFκB luciferase reporter assay in stably-transfected human embryonic kidney cells 293. Type of data set: cell-based. The conditions noted are these: human embryonic kidney cells 293 NFκB reporter, TNF-α 2 ng/mL, 6 h; read-out: IC50, inhibition of TNF-α-induced NFκB activity. How it is done: Activation of NFκB may promote cell proliferation or prevent cell death through apoptosis. Inhibition of NFκB signaling has potential application for the treatment or prevention of cancer; some inhibitors are known. […] […].
We employed human embryonic kidney cells 293 Panomic (Fremont, CA, USA) for monitoring changes occurring along the NFκB pathway. Stable constructed cells were seeded into sterile 96-well plate at 20 × 10^3 cells per well. Cells maintained in Dulbecco’s modified Eagle’s medium (DMEM) Invitrogen Co. (Carlsbad, CA, USA), supplemented with 10% FBS, 100 units/mL penicillin, 100 µg/mL streptomycin, 2 mM L-glutamine. After 48 h incubation, the medium was replaced and cells were treated with various concentration of test substances dissolved in PBS. TNF-α (Human, Recombinant, E. coli, Calbiochem, Gibbstown, NJ, USA) was used as an activator at a concentration of 2 ng/mL (0.14 nM). The plate was incubated for 6 h. Spent medium was discarded and the cells were washed once with PBS. Cells were lysed using 50 µL (for 96-well plate) Reporter Lysis Buffer from Promega, by incubating for 5 min on a shaker, and stored at −80 °C. The luciferase assay was performed using the Luc assay system from Promega (Madison, WI, USA). The gene product, luciferase enzyme, reacts with luciferase substrate, emitting light which was detected using a luminometer (LUMIstar Galaxy BMG). Data for NFκB constructs are expressed as IC50 values (i.e., concentration required to inhibit TNF-activated NFκB activity by 50%).

Data set [6] has as its system NO production in LPS-induced RAW 264.7 cells. Nature of the data set: LPS-induced NO production in RAW 264.7 cells (Griess reagent). The conditions noted are these: Mus musculus. Background: The Griess reaction detects nitrite, a stable product of nitric oxide.
Experimental: The amount of nitrite was measured using the Griess reagent to assess the NO production [47, 48]. […] The cells were treated with various concentrations of compounds dissolved in phenol-red free DMEM for 30 min followed by 1 μg/mL of LPS treatment for 24 h. […] The standard curve was created by using known concentrations of sodium nitrite.
Data set [7] relates to PGE2 production in LPS-induced RAW 264.7 cells. Nature of the data set: LPS-induced PGE2 production in RAW 264.7 cells (ELISA). Type of data set: cell-based. The conditions noted are these: Mus musculus. How it is done:
RAW 264.7 cells (1 × 10^5 cells/well, 200 µL) were incubated in a 96-well culture plate in the presence of 5% CO2 at 37 °C for 24 h. The medium was changed to non-colored DMEM containing 5% FBS, and the cells were treated with various concentrations of compounds for 30 min followed by 1 μg/mL of LPS treatment for 24 h. Cell media were collected, diluted 18-times and used for measuring PGE2. Nunc-Immuno 96-well plates were coated with secondary antibody (goat anti-mouse IgG) affinity purified (Jackson Immuno Research Laboratories). Aliquots of cell media were added to the immune plate with primary PGE2 monoclonal antibody (Cayman Chemical) and a tracer PGE2-acetylcholinesterase (Cayman Chemical) and incubated overnight at room temperature in the dark. The next day, the wells were aspirated, washed, 200 µL of Elman’s reagent was added in each well, and incubated 2–5 h at 37 °C out of direct light until control wells reach an optical density 0.4–0.5. Gentle rotating/shaking was used to decrease the time required for color development. Absorbance was read at 412 nm. The PGE2 concentration of each sample was calculated from a PGE2 standard curve (PGE2 from Cayman Chemical). The percent inhibition as a function of the inhibitor concentration was graphed to determine the IC50 values (concentration at which there was 50% inhibition).

In another data set the test system is RAW 264.7 cells. Nature of the data set: Cell viability (SRB) of RAW 264.7 cells in the NO assay. To be noted: 50 µM. It is filed as cell-based.

Where two headings read alike, the source gives them in different places.

As usually defined, the IC50 is the concentration that gives 50% inhibition. One may read the inhibition as the drop in the measured response relative to a control, in per cent.

Take `Oc1c(Br)cc(Br)c2nc3ccccc3nc12` [2,4-dibromo-1-hydroxyphenazine]: in data set [1], the bioavailability entry is listed as “poor bioavailability” and the in vivo activity result is “low”. Also, the “activation of glutathione S-transferase (GST)” value in data set [2] is reported as “activate”. Also, the “activation of QR1” value in [3] is recorded as “activate”.

Take `Oc1c(Br)ccc2nc3ccccc3nc12` [2-bromo-1-hydroxyphenazine]: in the data set with iNOS, the “inhibition of iNOS activity” value is on record as “did not inhibit iNOS activity”. The half-maximal inhibitory concentration (IC50) in the data set on NFκB [4] was 73 µM.

For `Cc1ccc(S(=O)(=O)/C=C/C#N)cc1` [BAY-11-7082, reference compound], in the data set on NFκB [5], the IC50 was 2 ± 0.28 µM.

With `Oc1ccc(/C=C/c2cc(O)cc(O)c2)cc1` [Resveratrol, resveratrol, reference compound], the IC50 in the data set with NFκB [5] is 2.5 ± 0.3 µM; in [6] (RAW264.7, read-out: NO IC50) it was 31.9 ± 1.8 µM; in data set [7] (RAW264.7, read-out: PGE2 IC50), 2.5 ± 0.43 µM. Moreover, the inhibition at 50 µM in data set [6] (RAW264.7, read-out: NO % inhibition (50 µM), LPS-induced RAW 264.7 cells, 50 µM) turned out to be 93 ± 0.8%; in [7] (RAW264.7, read-out: PGE2 % inhibition (50 µM)), 70.2 ± 13.9%. The “NO % cell survival” value with RAW 264.7 cells is recorded as 86.9 ± 3.9%.

In the case of `Cc1ccc(S(=O)(=O)N[C@@H](Cc2ccccc2)C(=O)CCl)cc1` [TPCK, N-tosyl-L-phenylalanyl chloromethyl ketone, reference compound], the IC50 in the data set on NFκB [5] was found to be 3.8 µM.

Values taken from article PMC3297008, “Novel Marine Phenazines as Potential Cancer Chemopreventive and Anti-Inflammatory Agents” (Marine Drugs, 2012).
